From article PMC5882690, “Mechanical characteristics of beta sheet-forming peptide hydrogels are dependent on peptide sequence, concentration and buffer composition” (Royal Society Open Science, 2018)
Where a SMILES comes first, the peptide text is derived from it.

Key:
[1] = Oscillatory amplitude sweep (storage modulus G′ in linear viscoelastic region, yield point); assay type: physicochemical; settings: for yield point YP / peptide hydrogel stiffness G′ / yield point YP (strain where G′ < 95% of original value): mean ± SD, n = 3; for peptide hydrogel stiffness G′: 140 mM ionic strength, assembled overnight; for peptide hydrogel stiffness G′ / yield point YP (strain where G′ < 95% of original value): 37°C
Description: […] The amplitude sweep tests were performed to measure storage moduli (G′) within the linear viscoelastic region. Calculations of the gel breaking points (yield points) were performed with MATLAB depending on the different peptide concentrations. Therefore, the yield strain was defined as the point where G′ is less than 95% of its original value. Oscillatory time sweep experiments were performed to study the gelation speed and hydrogel stiffness. Time sweeps up to 150 min measuring time using a frequency of 1 rad s^−1 and amplitude gamma of 0.05% were used. SAP hydrogel stiffness was determined after the equilibrium of the storage modulus (G′) was reached (t = 100 min). To determine the gelation speed, the slope of increasing storage modulus over time was calculated in the interval from t = 5 to 10 min after placing peptide solutions onto the rheometer.
To study SAP hydrogel stiffness within the linear viscoelastic region and gel breaking points according to the peptide concentrations, unary SAP hydrogels (300 µl) were prepared in vials at concentrations of 15 mg ml^−1, 20 mg ml^−1 and 30 mg ml^−1 by dissolving first the lyophilized peptides in 150 µl of buffer A and then adding 150 µl of peptide-specific Tris–NaCl buffer B according to table 1. Complementary SAP hydrogels (P11-13/14 and P11-28/29) were obtained by dissolving 150 µl of P11-13 in 0.1 M Tris buffer + 0.052 M NaCl pH 8 and 150 µl P11-14 in 0.055 M Tris buffer + 0.096 M NaCl pH 7.2 (table 1). The P11-13 and P11-14 solutions were then mixed (1 : 1) to obtain 300 µl of complementary SAP hydrogel with a final ionic strength of 140 mM and a pH of 7.2. All SAP hydrogels were allowed to assemble overnight.
To study the influence of divalent ions and different media on SAP hydrogel stiffness, gelation speed and gel breaking points (yield points), SAPs were prepared at a concentration of 15 mg ml^−1 in the different media, Tris–NaCl, Tris–MgSO4, DMEM or artificial saliva, according to table 1. All experiments were done at least in duplicate. Statistical evaluation was performed with GRAPHPAD PRISM version 6.0 based on a one-way ANOVA test followed by Tukey's multiple comparison test.

[2] = literature, cited from earlier work
Source text: The topographical structure of SAP hydrogels is important for the three-dimensional arrangement of cells within scaffolds. Zhang et al. state that the fibres of SAP hydrogels resemble the nanometre scale of natural polymer networks and thus allow three-dimensional cell growth. […] (figure 1). […] Moreover, they observed the formation fibre entanglements with diameters of 30 nm. The phenomenon of fibril clustering was also reported by Zhang et al. for the peptides KFE8 and KLD12, characterized by a typical single fibre width of 7 nm and thicker diameters for the bundles of fibres.

[3] = 15 mg ml^-1, Tris–NaCl, amplitude sweep
[4] = 20 mg ml^-1, Tris–NaCl, amplitude sweep
[5] = 30 mg ml^-1, Tris–NaCl, amplitude sweep

## CC(=O)N[C@@H](CCC(N)=O)C(=O)N[C@@H](CCC(N)=O)C(=O)N[C@@H](CCCNC(=N)N)C(=O)N[C@@H](Cc1ccccc1)C(=O)N[C@@H](CCC(=O)O)C(=O)N[C@@H](Cc1c[nH]c2ccccc12)C(=O)N[C@@H](CCC(=O)O)C(=O)N[C@@H](Cc1ccccc1)C(=O)N[C@@H](CCC(=O)O)C(=O)N[C@@H](CCC(N)=O)C(=O)N[C@@H](CCC(N)=O)C(N)=O [P11-4, CH3CO-QQRFEWEFEQQ-NH2] (Ac-QQRFEWEFEQQ-NH2)
[1]; 15 mg ml^-1, Tris–MgSO4, amplitude sweep
  yield point YP: 0.05±0.03%
[1]; [3]
  peptide hydrogel stiffness G′: 2.1± 1.0 kPa
  yield point YP (strain where G′ < 95% of original value): 2.3±0.3%
  yield point YP: 0.45± 0.05%
[1]; 15 mg ml^-1, artificial saliva, amplitude sweep up to 100% strain
  yield point YP: 0.3 ± 0.02%
[1]; 15 mg ml^-1, serum-free DMEM, amplitude sweep up to 100% strain
  yield point YP: 2.3 ± 0.44%
[1]; [4]
  peptide hydrogel stiffness G′: 2.4± 0.3 kPa
  yield point YP (strain where G′ < 95% of original value): 1.3±0.3%
[1]; [5]
  peptide hydrogel stiffness G′: 4.6± 1.3 kPa
  yield point YP (strain where G′ < 95% of original value): 1.2±0.7%
[1]; doubling SAP concentration from 15 to 30 mg ml^-1, Tris–NaCl
  factor of increase of SAP hydrogel stiffness: 2
[2]; P11-4 and P11-8 prepared in NaCl
  fibril width: 14 nm
[2]; prepared in NaCl
  diameter of fibre entanglements: 30 nm
